The test system of test [1] is antigen-specific CTL. Briefly: Antigen-specific CTL inducibility in the absence of a tumor antigen peptide. It counts as in vivo, mouse. The protocol:
On 7 days after second vaccination, the blood was collected, red blood cells was removed by BD Pharm Lyse (BD pharmingen), and the white blood cells were suspended in FACS buffer (1% fetal bovine serum, 2 mM PBS with EDTA). Anti-mouse CD16/32 monoclonal antibody (BioXcell) was added thereto, and Fc receptor blocking was carried out at 4° C. for 30 minutes. […] Then, staining was carried out with DAPI (Invitrogen) and the cells were washed twice with FACS buffer. It was resuspended in FACS buffer and analyzed by FACS verse Flow Cytometer (BD bioscience) and FAC Suite software (BD bioscience). For analysis, after DAPI negative fraction was gated, white blood cells fraction were provided using forward and side-way scattering as indicators. In the white blood cells fraction, both positive cells of Alexa 647-CD8 and PE-H-2Kb Tetramer were defined as CTLs. CTL ratio in white blood cells was used for evaluation.

Test [2] deals with T1, human TLR9 (Homo sapiens, UniProt Q9NR96).
T1 construct: host or cells: HEK-Blue hTLR9 cells (HEK293)
T1 sequence (Q9NR96 26-1032): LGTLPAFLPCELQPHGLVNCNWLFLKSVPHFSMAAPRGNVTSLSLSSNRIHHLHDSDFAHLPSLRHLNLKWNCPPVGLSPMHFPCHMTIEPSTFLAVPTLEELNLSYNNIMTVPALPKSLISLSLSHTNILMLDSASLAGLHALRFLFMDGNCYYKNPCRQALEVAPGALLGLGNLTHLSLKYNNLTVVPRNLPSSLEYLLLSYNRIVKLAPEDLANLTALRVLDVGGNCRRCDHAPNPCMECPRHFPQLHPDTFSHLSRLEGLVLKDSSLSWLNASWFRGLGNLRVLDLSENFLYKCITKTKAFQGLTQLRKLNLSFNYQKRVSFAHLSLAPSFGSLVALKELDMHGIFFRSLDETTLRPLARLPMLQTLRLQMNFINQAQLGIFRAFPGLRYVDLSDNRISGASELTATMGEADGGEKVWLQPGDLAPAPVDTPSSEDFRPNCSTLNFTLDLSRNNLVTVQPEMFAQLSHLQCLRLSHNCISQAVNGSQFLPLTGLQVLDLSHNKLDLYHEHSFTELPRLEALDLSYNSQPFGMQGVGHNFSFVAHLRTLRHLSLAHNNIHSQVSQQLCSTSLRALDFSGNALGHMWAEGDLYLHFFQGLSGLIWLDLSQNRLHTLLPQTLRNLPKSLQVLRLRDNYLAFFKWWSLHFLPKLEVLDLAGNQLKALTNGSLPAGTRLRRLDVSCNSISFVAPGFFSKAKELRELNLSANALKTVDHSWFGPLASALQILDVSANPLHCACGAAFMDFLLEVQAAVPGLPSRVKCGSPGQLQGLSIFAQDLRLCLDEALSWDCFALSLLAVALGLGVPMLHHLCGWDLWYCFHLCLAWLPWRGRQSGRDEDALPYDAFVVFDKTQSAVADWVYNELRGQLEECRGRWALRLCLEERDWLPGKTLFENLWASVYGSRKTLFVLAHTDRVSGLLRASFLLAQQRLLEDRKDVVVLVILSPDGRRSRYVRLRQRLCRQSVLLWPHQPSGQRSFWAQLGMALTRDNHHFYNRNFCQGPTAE
Briefly: Reporter assay with HEK-Blue hTLR9 cells (TLR9 agonist activity). It counts as cell-based. The conditions noted are these: HEK-Blue hTLR9 cells, 16 hours. The protocol:
HEK-Blue™ hTLR9 cells (Invivogen) used for the reporter assay were made by introducing human TLR9 gene and a reporter gene that secretory alkaline phosphatase gene bound to NF-kB-AP-1 binding region sequence in HEK293 cells, and are the cells stably expressing the both genes. 3.6×10^4 of the cells suspended in HEK-Blue™ Detection ([…]) comprising substrates against the alkaline phosphatase were seeded on the 96 well plate, and 3 nM to 30 μM of a lipid binding double-stranded oligonucleotide of the present invention, the known CpG oligonucleotides (ODN2006, SEQ-49), or adjuvant based on design in Patent Document 1, i.e., ssCpG ODN introducing a lipid ligand (SEQ-142, 143 or 144) was added. After culturing in a 37° C., 5% CO2 incubator for 16 hours, absorbency at 620 nm was measured using the culture supernatant developed a color. The result value was analyzed with TIBCO Spotfire software, and calculated the 50% effective concentration (EC50) of each oligonucleotide.

Read-outs that look alike come from different tables or passages of the source.

For orientation: EC50 means the concentration that produces a half-maximal response.

For ODN2006 [SEQ-49], in test [1] (Table 69, in the absence of a tumor antigen peptide), the “Ratio of average value of antigen-specific CTL” value was “Undetectable”. Besides, in test [1] (absence of a tumor antigen peptide), the “antigen-specific CTL values” is “undetectable”. Besides, the EC50 is 467 nM in test [2] (Experiment 1 (Table 28), read-out: EC50); about 467 nM in test [2] (Experiment 1, Table 28, read-out: EC50 value); 245 nM in test [2] (Experiment 2 (Table 29), read-out: EC50); about 245 nM in test [2] (Experiment 2, Table 29, read-out: EC50 value).

Values taken from patent publication US10940201B2, “Nucleic acid derivative having immunostimulatory activity” (Shionogi & Co., Ltd., priority 2015, dated 2021).
